Test system: YAP, phosphorylated YAP (Ser127), TAZ
Experiment: Western blotting of YAP, phosphorylated YAP, TAZ in SKOV3 cells (2D and 3D culture)
Assay type: cell-based, human
Settings: 1, 5, 10 μM, 1 hr, both 2D culture and 3D culture, FIG. 1
Procedure: 2D culture conditions: Human ovarian cancer cell line SKOV3 cultured according to the protocol recommended by DS Pharma Biomedical Co., Ltd. was suspended in McCoy's 5a medium (manufactured by Sigma-Aldrich) containing 15% (v/v) FBS and seeded on a 100 mm plate (manufactured by Corning Incorporated, #430167) at 1,000,000 cells/10 mL and cultured in a CO2 incubator for 24 hr. Successively, k-1:B-1 dissolved in DMSO was added to the culture medium at a final concentration of 1, 5, 10 μM. As the control, the medium without addition and the medium added with DMSO were cultured. After 1 hr, the cells were washed 3 times with ice-cooled phosphate buffered saline (PBS, manufactured by Wako Pure Chemical Industries, Ltd.), 250 μL of RIPA Buffer (manufactured by Wako Pure Chemical Industries, Ltd.) containing a protease inhibitor cocktail (manufactured by Roche) was added, and the cells were lysed with a scraper. […] The supernatant was dispensed, the protein concentration was measured using BCA protein assay kit (manufactured by PIERCE), and then SDS (sodium dodecyl sulfate) gel electrophoresis was performed on the lysate. […] After incubation with a secondary antibody (manufactured by Horseradish peroxidase) linked with an anti-rabbit HRP (horseradish peroxidase) or an anti-mouse HRP, the protein was detected by a chemiluminescence detector (manufactured by BioRad) using ImmunoStar Zeta (manufactured by Wako Pure Chemical Industries, Ltd.).
3D culture conditions: According to the method of patent document (WO 2014/017513), a composition of McCoy's 5a medium (manufactured by Sigma-Aldrich) containing 0.015% (w/v) deacylated gellan gum (KELCOGEL CG-LA, manufactured by Sansho Co., Ltd.), 30 ng/mL human HB-EGF (manufactured by PEPROTECH), and 15% (v/v) FBS was prepared. […] The supernatant was dispensed, the protein concentration was measured using BCA protein assay kit (manufactured by PIERCE), and then SDS gel electrophoresis was performed on the lysate. […]

CC/C(=N\NC(=O)C(C)Nc1ccccc1)c1ccc(O)c(C)c1O (stereo not drawn) [k-1:B-1]
phosphorylation of YAP: suppressed
total TAZ protein amount in the cell: increased
total YAP protein amount in the cell: increased

Source: patent publication US20210253518A1, “KINASE INHIBITOR” (NISSAN CHEMICAL CORPORATION, priority 2018, published 2021)
